Key:
Type in all cases: biochemical
HDAC1 = molecular target: T1, HDAC1 (Homo sapiens, UniProt Q13547); test: HDAC Inhibition Screening Assay (FLUOR DE LYS Fluorimetric Drug Discovery Kit), HDAC1; settings: for inhibition at 2 µM: 2 μM compound; for inhibition at 10 µM: 10 μM compound; for inhibition at 50 µM: 50 μM compound
T1 construct: purchased Enzo Life Sciences
Experimental: (§1) The HDAC1/HDAC2/HDAC3 in vitro activities are detected by Enzo Life Sciences' HDAC1/HDAC2/HDAC3 Fluorimetric Drug Discovery Kit. The assay is based on the FLUOR DE LYS® Substrate and FLUOR DE LYS® Developer combination. The assay procedure has two steps. First, the FLUOR DE LYS® Substrate, which comprises an acetylated lysine side chain, is incubated with HDAC1/HDAC2/HDAC3, respectively. Deacetylation of the substrate sensitizes the substrate so that, in the second step, treatment with the FLUOR DE LYS® Developer produces a fluorophore. The signals of the test compounds (Compounds 1˜83; at concentrations of 2 μM, 10 μM and 50 μM) in 96-well plates are detected at 360 nm or 485 nm excitation and 460 nm or 530 nm emission with a Molecular Devices SpectraMax i3 Imaging Cytometer. The HDAC1/HDAC2/HDAC3 activities are expressed in percentage of basal control minus baseline control.

ATX (autotaxin) = molecular target: T2, ATX (autotaxin) (Homo sapiens, UniProt Q13822); test: Autotaxin Inhibition Screening Assay (choline release from LPC, LPC-CR); settings: for inhibition at 4 µM: 4 μM compound; for inhibition at 20 µM: 20 μM compound; for inhibition at 50 µM: 50 μM compound
T2 construct: purchased Cayman 10803
Experimental: ATX (autotaxin) activity was measured by choline release from LPC in presence or absence of test compounds (Compounds 1˜83; at concentrations of 4 μM, 20 μM and 50 μM). Twenty (20) ng ATX (10803, Cayman, MI, USA) was incubated with 100 μM 14:0 LPC (855575P, Avanti, AL, USA) in a final volume of 100 μL buffer containing 50 mM Tris pH 8.0, 0.01% Triton X-100, 50 mM CaCl2, 1 unit/ml choline oxidase, 2 unit/ml horseradish peroxidase (HRP), 2 mM homovanilic acid (HVA). The relative amount of released choline was measured by HVA fluorescence in a 96-well plate. Fluorescent intensity was determined at λex/λem=320/450 nm every 60 sec for 90 min with a SpectraMax i3 (Molecular Devices, CA, USA). Data analysis was performed using GraphPad Prism (GraphPad, La Jolla CA, USA). Inhibition %=[1−(SlopeTA−SlopeBlank)/(SlopeVehicle−SlopeBlank)]×100% HDAC Inhibition Screening Assay

HDAC3 = molecular target: T3, HDAC3 (Homo sapiens, UniProt O15379); test: HDAC Inhibition Screening Assay (FLUOR DE LYS Fluorimetric Drug Discovery Kit), HDAC3; settings: for inhibition at 2 µM: 2 μM compound; for inhibition at 10 µM: 10 μM compound; for inhibition at 50 µM: 50 μM compound
T3 construct: purchased Enzo Life Sciences
Experimental: as §1

HDAC2 = molecular target: T4, HDAC2 (Homo sapiens, UniProt Q92769); test: HDAC Inhibition Screening Assay (FLUOR DE LYS Fluorimetric Drug Discovery Kit), HDAC2; settings: for inhibition at 2 µM: 2 μM compound; for inhibition at 10 µM: 10 μM compound; for inhibition at 50 µM: 50 μM compound
T4 construct: purchased Enzo Life Sciences
Experimental: as §1

T4 sequence (Q92769 whole entry): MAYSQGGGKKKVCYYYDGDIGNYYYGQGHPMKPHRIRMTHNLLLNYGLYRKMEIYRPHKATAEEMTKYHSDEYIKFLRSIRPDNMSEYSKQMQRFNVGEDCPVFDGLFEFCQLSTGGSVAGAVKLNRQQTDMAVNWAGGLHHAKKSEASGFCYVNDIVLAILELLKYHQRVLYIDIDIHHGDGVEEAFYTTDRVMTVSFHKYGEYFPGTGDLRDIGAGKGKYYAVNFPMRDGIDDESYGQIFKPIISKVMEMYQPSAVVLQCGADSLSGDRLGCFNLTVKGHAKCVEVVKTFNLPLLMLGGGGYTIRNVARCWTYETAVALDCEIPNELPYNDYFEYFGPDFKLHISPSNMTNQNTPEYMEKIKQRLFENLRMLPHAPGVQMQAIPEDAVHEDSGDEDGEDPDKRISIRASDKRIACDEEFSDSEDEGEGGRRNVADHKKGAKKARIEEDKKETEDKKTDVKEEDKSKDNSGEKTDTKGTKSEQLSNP
T3 sequence (O15379 whole entry): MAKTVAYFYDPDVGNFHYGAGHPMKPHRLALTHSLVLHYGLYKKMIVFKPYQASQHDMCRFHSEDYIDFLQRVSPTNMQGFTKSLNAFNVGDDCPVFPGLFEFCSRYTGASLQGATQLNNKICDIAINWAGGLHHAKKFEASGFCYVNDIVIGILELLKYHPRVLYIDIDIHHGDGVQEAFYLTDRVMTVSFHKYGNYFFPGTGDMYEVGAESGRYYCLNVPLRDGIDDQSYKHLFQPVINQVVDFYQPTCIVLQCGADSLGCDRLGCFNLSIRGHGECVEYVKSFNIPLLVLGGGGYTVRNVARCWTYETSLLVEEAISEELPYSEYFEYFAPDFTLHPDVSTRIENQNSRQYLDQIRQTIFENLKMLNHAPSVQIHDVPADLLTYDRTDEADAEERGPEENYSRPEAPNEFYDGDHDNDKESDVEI
T3 sequence (O75376 395-489 partner limits assumed): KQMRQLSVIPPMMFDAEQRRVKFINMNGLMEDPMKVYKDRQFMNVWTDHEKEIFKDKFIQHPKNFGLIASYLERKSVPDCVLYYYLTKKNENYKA
T1 sequence (Q13547 whole entry): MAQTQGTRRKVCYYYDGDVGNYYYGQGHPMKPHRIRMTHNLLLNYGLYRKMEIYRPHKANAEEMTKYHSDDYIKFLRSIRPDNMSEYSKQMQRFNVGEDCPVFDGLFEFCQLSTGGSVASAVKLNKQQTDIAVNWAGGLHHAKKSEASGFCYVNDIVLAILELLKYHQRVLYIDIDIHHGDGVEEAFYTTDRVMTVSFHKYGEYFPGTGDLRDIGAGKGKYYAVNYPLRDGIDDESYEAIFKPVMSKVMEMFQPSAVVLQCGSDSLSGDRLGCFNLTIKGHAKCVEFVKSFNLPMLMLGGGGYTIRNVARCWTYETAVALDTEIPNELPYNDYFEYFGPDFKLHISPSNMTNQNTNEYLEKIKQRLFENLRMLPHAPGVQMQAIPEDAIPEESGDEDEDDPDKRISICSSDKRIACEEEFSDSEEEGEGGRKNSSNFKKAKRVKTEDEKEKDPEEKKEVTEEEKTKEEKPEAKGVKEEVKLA

SMILES	inhibition at 2 µM (HDAC1)	inhibition at 10 µM (HDAC1)	inhibition at 50 µM (HDAC1)	inhibition at 4 µM (ATX (autotaxin))	inhibition at 20 µM (ATX (autotaxin))	inhibition at 50 µM (ATX (autotaxin))	inhibition at 2 µM (HDAC3)	inhibition at 10 µM (HDAC3)	inhibition at 50 µM (HDAC3)	inhibition at 2 µM (HDAC2)	inhibition at 10 µM (HDAC2)	inhibition at 50 µM (HDAC2)
COc1ccc(CCNC2CCc3cc(/C=C/C(=O)NO)ccc32)cc1 (stereo not drawn) [Compound 52, (E)-N-hydroxy-3-(1-((4-methoxyphenethyl)amino)-2,3-dihydro-1H-inden-5-yl)acrylamide]	> 80%	> 80%	> 80%	< 50%	< 50%	< 50%	> 80%	> 80%	> 80%	> 80%	> 80%	> 80%
Nc1cc(F)ccc1NC(=O)/C=C/c1ccc2c(c1)CCC2NCCc1c[nH]c2ccccc12 (stereo not drawn) [Compound 57, (E)-3-(1-((2-(1H-indol-3-yl)ethyl)amino)-2,3-dihydro-1H-inden-5-yl)-N-(2-amino-4-fluorophenyl)acrylamide]	< 50%	50 to 80%	> 80%	< 50%	< 50%	< 50%	> 80%	> 80%	> 80%	50 to 80%	> 80%	> 80%
O=C(/C=C/c1ccc(COc2ccc3c(c2)CCC(Cc2cc(C(F)(F)F)cc(C(F)(F)F)c2)C3=O)cc1)NO (stereo not drawn) [Compound 73, (E)-3-(4-(((6-(3,5-bis(trifluoromethyl)benzyl)-5-oxo-5,6,7,8-tetrahydronaphthalen-2-yl)oxy)methyl)phenyl)-N-hydroxyacrylamide]	< 50%	< 50%	< 50%	< 50%	< 50%	< 50%	< 50%	< 50%	< 50%	< 50%	< 50%	< 50%
O=C(/C=C/c1ccc2c(c1)CCCC2NC(=O)c1cc(C(F)(F)F)cc(C(F)(F)F)c1)NO (stereo not drawn) [Compound 24, (E)-N-(6-(3-(hydroxyamino)-3-oxoprop-1-en-1-yl)-1,2,3,4-tetrahydronaphthalen-1-yl)-3,5-bis(trifluoromethyl)benzamide]	< 50%	< 50%	50 to 80%	< 50%	< 50%	< 50%	< 50%	< 50%	< 50%	< 50%	< 50%	50 to 80%
Nc1cc(F)ccc1NC(=O)CCCCC(=O)Nc1ccc2c(c1)CC/C(=C\c1cc(C(F)(F)F)cc(C(F)(F)F)c1)C2=O [Compound 13, (E)-N1-(2-amino-4-fluorophenyl)-N6-(6-(3,5-bis(trifluoromethyl)benzylidene)-5-oxo-5,6,7,8-tetrahydronaphthalen-2-yl)adipamide]	< 50%	< 50%	< 50%	50 to 80%	50 to 80%	50 to 80%	< 50%	< 50%	< 50%	< 50%	< 50%	< 50%
Nc1cc(F)ccc1NC(=O)/C=C/c1ccc2c(c1)CC/C(=C\c1cc(C(F)(F)F)cc(C(F)(F)F)c1)C2=O [Compound 6, (E)-N-(2-amino-4-fluorophenyl)-3-(6-((E)-3,5-bis(trifluoromethyl)benzylidene)-5-oxo-5,6,7,8-tetrahydronaphthalen-2-yl)acrylamide]	< 50%	< 50%	< 50%	50 to 80%	50 to 80%	50 to 80%	< 50%	< 50%	< 50%	< 50%	< 50%	< 50%
Nc1cc(F)ccc1NC(=O)/C=C/c1ccc2c(c1)CCC2NS(=O)(=O)c1cc(C(F)(F)F)cc(C(F)(F)F)c1 (stereo not drawn) [Compound 17, (E)-N-(2-amino-4-fluorophenyl)-3-(1-((3,5-bis(trifluoromethyl)phenyl)sulfonamido)-2,3-dihydro-1H-inden-5-yl)acrylamide]	< 50%	< 50%	< 50%	< 50%	< 50%	< 50%	< 50%	< 50%	< 50%	< 50%	< 50%	< 50%
O=C(/C=C/c1ccc2c(c1)CCC2NC(=O)CCCCCCC(=O)NO)Nc1cc(Cl)cc(Cl)c1 (stereo not drawn) [Compound 42, (E)-N^1-(5-(3-((3,5-dichlorophenyl)amino)-3-oxoprop-1-en-1-yl)-2,3-dihydro-1H-inden-1-yl)-N^8-hydroxyoctanediamide]	< 50%	50 to 80%	> 80%	< 50%	< 50%	> 80%	50 to 80%	> 80%	50 to 80%	50 to 80%	50 to 80%	> 80%
O=C(/C=C/c1ccc2c(c1)CC/C(=C\c1cc(C(F)(F)F)cc(C(F)(F)F)c1)C2=O)NCCCCCC(=O)NO [Compound 8, 6-((E)-3-(6-((E)-3,5-bis(trifluoromethyl)benzylidene)-5-oxo-5,6,7,8-tetrahydronaphthalen-2-yl)acrylamido)-N-hydroxyhexanamide]	50 to 80%	> 80%	> 80%	> 80%	> 80%	> 80%	< 50%	> 80%	> 80%	> 80%	> 80%	> 80%
CN(C)c1ccc(CCNC2CCc3cc(/C=C/C(=O)NO)ccc32)cc1 (stereo not drawn) [Compound 56, (E)-3-(1-((4-(dimethylamino)phenethyl)amino)-2,3-dihydro-1H-inden-5-yl)-N-hydroxyacrylamide]	> 80%	> 80%	> 80%	< 50%	< 50%	< 50%	> 80%	> 80%	> 80%	> 80%	> 80%	> 80%
COc1ccc2c(c1)CCCC2NC(=O)CCCCCCC(=O)NO (stereo not drawn) [Compound 48, N^1-hydroxy-N^8-(6-methoxy-1,2,3,4-tetrahydronaphthalen-1-yl)octanediamide]	> 80%	> 80%	> 80%	< 50%	< 50%	< 50%	> 80%	> 80%	> 80%	> 80%	> 80%	> 80%
Nc1cc(F)ccc1NC(=O)c1ccc(COc2ccc3c(c2)CCC(Cc2cc(C(F)(F)F)cc(C(F)(F)F)c2)C3=O)cc1 (stereo not drawn) [Compound 67, N-(2-amino-4-fluorophenyl)-4-(((6-(3,5-bis(trifluoromethyl)benzyl)-5-oxo-5,6,7,8-tetrahydronaphthalen-2-yl)oxy)methyl)benzamide]	< 50%	< 50%	< 50%	< 50%	< 50%	< 50%	< 50%	< 50%	< 50%	< 50%	< 50%	< 50%
O=C(/C=C/c1ccc2c(c1)CCCC2NCCc1c[nH]c2ccccc12)NO (stereo not drawn) [Compound 61, (E)-3-(5-((2-(1H-indol-3-yl)ethyl)amino)-5,6,7,8-tetrahydronaphthalen-2-yl)-N-hydroxy acrylamide]	> 80%	> 80%	> 80%	< 50%	< 50%	< 50%	> 80%	> 80%	> 80%	> 80%	> 80%	> 80%
